Assay results published in ChEMBL document CHEMBL1201862, “PubChem BioAssay data set” (2004).
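Values below derive from 48-hour exposures of cells grown in 96-well plates, with endpoints linearly interpolated between the two concentrations bracketing the appropriate inhibition level. GI50: concentration for 50% inhibition of growth.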 Activity calls are given as the source filed them. Cut-off read from the data, not from the text of the source: active = GI50 up to about 1.1 µM and inactive = higher.

How the values were obtained:
Experiment in all cases: NCI-60 cell line screen, 48 h
786-0 = test system: 786-0
A498 = test system: A498
A549 = test system: A549
ACHN = test system: ACHN
BT-549 = test system: BT-549
CAKI-1 = test system: CAKI-1
CCRF-CEM = test system: CCRF-CEM
COLO 205 = test system: COLO 205
DU-145 = test system: DU-145
HCC 2998 = test system: HCC 2998
HCT-116 = test system: HCT-116
HCT-15 = test system: HCT-15
HOP-62 = test system: HOP-62
HOP-92 = test system: HOP-92
HT-29 = test system: HT-29
IGROV-1 = test system: IGROV-1
K562 = test system: K562
KM12 = test system: KM12
M14 = test system: M14
MCF7 = test system: MCF7
MDA-MB-231 = test system: MDA-MB-231
MDA-MB-435 = test system: MDA-MB-435
MDA-N = test system: MDA-N
MOLT-4 = test system: MOLT-4
Malme-3M = test system: Malme-3M
NCI-H226 = test system: NCI-H226
NCI-H23 = test system: NCI-H23
NCI-H460 = test system: NCI-H460
NCI-H522 = test system: NCI-H522
NCI/ADR-RES = test system: NCI/ADR-RES
OVCAR-3 = test system: OVCAR-3
OVCAR-4 = test system: OVCAR-4
OVCAR-5 = test system: OVCAR-5
OVCAR-8 = test system: OVCAR-8
PC-3 = test system: PC-3
RXF 393 = test system: RXF 393
SF-268 = test system: SF-268
SF-295 = test system: SF-295
SF-539 = test system: SF-539
SK-MEL-28 = test system: SK-MEL-28
SK-OV-3 = test system: SK-OV-3
SN12C = test system: SN12C
SNB-19 = test system: SNB-19
SR = test system: SR
SW-620 = test system: SW-620
T47D = test system: T47D
TK-10 = test system: TK-10
U-251 = test system: U-251
UACC-257 = test system: UACC-257
UACC-62 = test system: UACC-62
UO-31 = test system: UO-31
EKVX = test system: EKVX
HL-60 = test system: HL-60
LOX IMVI = test system: LOX IMVI
RPMI-8226 = test system: RPMI-8226
SK-MEL-2 = test system: SK-MEL-2
SK-MEL-5 = test system: SK-MEL-5

Measured: GI50

Cc1ccc2c(n1)NC(=O)C(Cc1ccccc1)(N=[N+]=[N-])C2=O (stereo not drawn)
inactive: 786-0 > 100 µM | A498 > 100 µM | A549 > 100 µM | ACHN > 100 µM | BT-549 > 100 µM | CAKI-1 > 100 µM | CCRF-CEM > 100 µM | COLO 205 > 100 µM | DU-145 > 100 µM | HCC 2998 > 100 µM | HCT-116 > 100 µM | HOP-62 > 100 µM | HOP-92 > 100 µM | HT-29 > 100 µM | IGROV-1 > 100 µM | K562 > 100 µM | KM12 > 100 µM | M14 > 100 µM | MCF7 > 100 µM | MDA-MB-231 > 100 µM | MDA-MB-435 > 100 µM | MDA-N > 100 µM | MOLT-4 > 100 µM | Malme-3M > 100 µM | NCI-H226 > 100 µM | NCI-H23 > 100 µM | NCI-H460 > 100 µM | NCI-H522 > 100 µM | NCI/ADR-RES > 100 µM | OVCAR-3 > 100 µM | OVCAR-4 > 100 µM | OVCAR-5 > 100 µM | OVCAR-8 > 100 µM | PC-3 > 100 µM | RXF 393 > 100 µM | SF-268 > 100 µM | SF-295 > 100 µM | SF-539 > 100 µM | SK-MEL-28 > 100 µM | SK-OV-3 > 100 µM | SN12C > 100 µM | SNB-19 > 100 µM | SR > 100 µM | SW-620 > 100 µM | T47D 67 µM | TK-10 > 100 µM | U-251 > 100 µM | UACC-257 > 100 µM | UACC-62 > 100 µM | UO-31 > 100 µM
> 100 µM: HCT-15

Cc1ccc2c3c1O[C@H]1c4[nH]c5ccccc5c4C[C@@]4(O)[C@@H](C2)N(CC2CC2)CC[C@]314
inactive: 786-0 13.8 µM | A498 17.1 µM | A549 14.7 µM | ACHN 16.6 µM | BT-549 18.3 µM | CAKI-1 16.6 µM | CCRF-CEM 2.78 µM | COLO 205 14.3 µM | DU-145 16.1 µM | EKVX 17.4 µM | HCC 2998 3.78 µM | HCT-116 14.5 µM | HL-60 5.3 µM | HOP-62 19.2 µM | HOP-92 13 µM | HT-29 4.42 µM | IGROV-1 17.4 µM | K562 15.5 µM | KM12 17 µM | LOX IMVI 15.9 µM | M14 16.8 µM | MCF7 16.4 µM | MDA-MB-231 19.4 µM | MDA-MB-435 13.7 µM | MDA-N 16.2 µM | MOLT-4 12.2 µM | Malme-3M 14.5 µM | NCI-H226 14.9 µM | NCI-H23 19.7 µM | NCI-H460 15.2 µM | NCI-H522 15 µM | NCI/ADR-RES 19.1 µM | OVCAR-3 14.4 µM | OVCAR-5 18.7 µM | OVCAR-8 15.3 µM | PC-3 12.1 µM | RPMI-8226 11.2 µM | RXF 393 7.38 µM | SF-268 13.6 µM | SF-295 17.4 µM | SF-539 16.5 µM | SK-MEL-28 12.6 µM | SK-MEL-2 17.1 µM | SK-MEL-5 14.1 µM | SK-OV-3 16.4 µM | SN12C 15.3 µM | SNB-19 16.7 µM | SR 8.89 µM | SW-620 10.9 µM | T47D 17.6 µM | TK-10 17.3 µM | U-251 14.4 µM | UACC-257 16.7 µM | UACC-62 16 µM | UO-31 13.4 µM
12.7 µM: HCT-15
active: OVCAR-4 0.166 µM
